Measurements reported in patent US20240183860A1, “Chimeric ABC Transporters and Screening Methods” (Genentech, Inc., priority 2021, published 2024).
Converted amounts (≈) assume the structure as drawn. “Also recorded” adds a separate entry of the source. Bridge positions count the residues as written; N and C are the ends. Square brackets hold non-standard residues; d marks the D form. Peptide text beside a SMILES is read from it. NMeF = CN[C@@H](Cc1ccccc1)C(=O)O

Assays:
[1] = test system: WT E. coli cells with an intact outer membrane (CFT073, UPEC WT); experiment: Cellular IC50 determination (BacTiter-Glo, 6 hours); assay type: cell-based, Escherichia coli
Method: The cellular IC50's of various bacterial strains (Table 2) were determined.
200 nL aliquots of eight 2-fold dilutions of each compound were dispensed in duplicate into 384-well plates using an Echo Liquid Handler (Labcyte). Strains were grown in cation-adjusted Mueller Hinton Broth with 0.002% Tween overnight for 16 hours, washed with PBS, resuspended at OD600=1 in cation-adjusted Mueller Hinton Broth with 0.002% Tween and 10% glycerol, and frozen in […] aliquots. For each experiment, aliquots were thawed on ice and diluted 1:1000 into cation-adjusted Mueller Hinton Broth with 0.002% Tween. 10 μL cells/well were added to 384-well plates containing compound. Plates were incubated for 6 hours at 37° C., then 10 μL BacTiter-Glo reagent (Promega) was added to each well and luminescence was measured. IC50's were calculated using Genedata Screener software.

[2] = test system: E. coli CFT073 lptD(imp4213) cells; experiment: Electron microscopy of inhibitor-exposed cells (membrane phenotype, LPS transport); assay type: cell-based, Escherichia coli
Excerpt: In some embodiments, one or more functional assays may be performed to test the effect of molecules identified in a screen on the function of the parental ABC transporter. For example, in some cases, a molecule that binds to the periplasmic, extracellular, and/or luminal face of an ABC transporter acts as an inhibitor of the transporter. For example, if inhibition of an ABC transporter activity is expected to result in loss of cell viability or reduction of cell growth, for example, then a cell viability or growth assay can be conducted to determine if presence of the identified molecule affects these parameters. In some cases, other assays may be conducted to determine the impact of a molecule on the function of the transporter. In some cases, the transport of the transporter's substrate in the presence and absence of the molecule can be tested. […] Lack of LPS transport causes a stacking of inner and outer membranes at the surface of a bacterial cell that is clearly visible by EM. Appropriate functional assays for the ABC transporter in question are known or may be readily developed based on knowledge in the art.
Electron microscopy of E. coli CFT073 lptD(imp4213) or CFT073 lptD(imp4213) msbA-cond-ko cells rescued with pLMG18 plasmids expressing the indicated E. coli MsbA mutants was performed as described previously (Ho et al., 2018). […]

[3] = test system: imp E. coli (lptD(imp4213)), E. coli MsbA; experiment: Broth MIC assay; assay type: cell-based, Escherichia coli; details: cells containing the lptD(imp4213) allele
Method: Broth MICs were determined in cation-adjusted Mueller-Hinton broth with 0.002% Tween-80, as previously described (Ho et al., 2018).

[4] = molecular target: T1, EcMsbA-chim5 (MsbA-chimera5) (Escherichia coli, UniProt P60752, D53T/D54Y/D60K/DEL268-292/DEL57-57/F265A/G55I/I169L/INS266IAYAGNRVIHEDMRSGALIAFIAAL/INS66P/K49D/K58D/L171A/L263V/L51V/L52I/M159V/M67L/P68V/S164D/S62H/T59E/V63D/Y163E); experiment: biochemical; assay type: biochemical
T1 construct: FLAG (N); made in house; host or cells: E. coli Rosetta 2 (DE3), pET-52b vector
T1 sequence (P60752 with tags, fused parts or gaps with the stated changes): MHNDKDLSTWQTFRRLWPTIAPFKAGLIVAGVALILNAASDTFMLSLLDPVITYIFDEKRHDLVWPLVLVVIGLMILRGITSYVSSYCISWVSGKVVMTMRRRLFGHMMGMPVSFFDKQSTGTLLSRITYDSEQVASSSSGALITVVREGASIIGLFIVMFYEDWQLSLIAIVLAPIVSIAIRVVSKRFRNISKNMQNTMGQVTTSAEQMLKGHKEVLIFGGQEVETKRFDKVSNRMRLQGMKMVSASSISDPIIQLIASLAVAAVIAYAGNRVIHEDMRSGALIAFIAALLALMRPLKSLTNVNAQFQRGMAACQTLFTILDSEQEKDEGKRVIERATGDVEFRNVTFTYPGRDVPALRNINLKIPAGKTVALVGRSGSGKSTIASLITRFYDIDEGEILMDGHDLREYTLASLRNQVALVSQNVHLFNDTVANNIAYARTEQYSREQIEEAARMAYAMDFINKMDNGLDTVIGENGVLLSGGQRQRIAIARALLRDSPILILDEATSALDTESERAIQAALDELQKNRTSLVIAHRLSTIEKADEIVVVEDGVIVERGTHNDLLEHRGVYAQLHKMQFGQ
Method: (§1) The ATPase activity of MsbA was measured using a Transcreener ADP2 FP Assay (BellBrook Labs). […] The final condition for the reaction was MsbA enzyme, 50 μM ATP in 50 mM Tris pH 7.5, 10 mM MgCl2, 1% glycerol, 0.1% bovine gamma globulin, 1 mM dithiothreitol (DTT), 0.007% Brij-35 and 0.5% dimethylsulfoxide (DMSO). The following concentrations were used for each MsbA variant: 5 nM of EcMsbA, EnMsbA, KpMsbA and 80 nM PaMsbA reconstituted in amphipol, 15 nM EcMsbA and EcMsbA-chim5 in LMNG detergent, 22 nM EcMsbA and 27 nM EcMsbA-12G7 complex in aDDM detergent. The enzyme reaction was incubated for 1 hour at room temperature, then quenched by adding the Transcreener Detection Buffer. The IC50 was determined by fitting the inhibition dose-response curve with a nonlinear four-parameter inhibition model (GraphPad Prism).

[5] = test system: EcMsbA-chim5 (MsbA-chimera5); experiment: biochemical; assay type: biochemical, Escherichia coli; details: ratio of ATPase IC50s
Method: as §1

[6] = molecular target: T2, E. coli MsbA (EcMsbA) (Escherichia coli, UniProt P60752); experiment: MsbA ATPase assay (Transcreener ADP2 FP); assay type: biochemical
T2 construct: FLAG (N); made in house; host or cells: E. coli (strain for the WT protein not restated)
T2 sequence (P60752 whole entry): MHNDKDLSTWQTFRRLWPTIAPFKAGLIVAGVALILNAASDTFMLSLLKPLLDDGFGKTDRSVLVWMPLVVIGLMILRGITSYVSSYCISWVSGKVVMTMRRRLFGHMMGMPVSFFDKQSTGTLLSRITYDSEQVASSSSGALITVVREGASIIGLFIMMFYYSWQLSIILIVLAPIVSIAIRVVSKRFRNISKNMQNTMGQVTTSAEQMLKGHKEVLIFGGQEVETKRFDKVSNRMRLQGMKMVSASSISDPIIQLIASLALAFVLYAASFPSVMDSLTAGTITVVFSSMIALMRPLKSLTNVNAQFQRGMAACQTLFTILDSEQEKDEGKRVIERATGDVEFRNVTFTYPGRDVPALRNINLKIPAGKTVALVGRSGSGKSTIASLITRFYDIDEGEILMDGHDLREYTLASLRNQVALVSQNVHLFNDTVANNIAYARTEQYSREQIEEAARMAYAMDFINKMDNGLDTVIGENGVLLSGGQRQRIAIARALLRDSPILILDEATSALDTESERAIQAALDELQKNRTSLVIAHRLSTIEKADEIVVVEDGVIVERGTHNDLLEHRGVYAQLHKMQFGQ
Method: as §1

[7] = molecular target: T3, Pseudomonas aeruginosa MsbA (PaMsbA) (Pseudomonas aeruginosa, UniProt Q9HUG8); experiment: MsbA ATPase assay, amphipol-reconstituted homologue; assay type: biochemical
T3 construct: FLAG; made in house; host or cells: not restated ('similarly expressed')
T3 sequence (Q9HUG8 1-603): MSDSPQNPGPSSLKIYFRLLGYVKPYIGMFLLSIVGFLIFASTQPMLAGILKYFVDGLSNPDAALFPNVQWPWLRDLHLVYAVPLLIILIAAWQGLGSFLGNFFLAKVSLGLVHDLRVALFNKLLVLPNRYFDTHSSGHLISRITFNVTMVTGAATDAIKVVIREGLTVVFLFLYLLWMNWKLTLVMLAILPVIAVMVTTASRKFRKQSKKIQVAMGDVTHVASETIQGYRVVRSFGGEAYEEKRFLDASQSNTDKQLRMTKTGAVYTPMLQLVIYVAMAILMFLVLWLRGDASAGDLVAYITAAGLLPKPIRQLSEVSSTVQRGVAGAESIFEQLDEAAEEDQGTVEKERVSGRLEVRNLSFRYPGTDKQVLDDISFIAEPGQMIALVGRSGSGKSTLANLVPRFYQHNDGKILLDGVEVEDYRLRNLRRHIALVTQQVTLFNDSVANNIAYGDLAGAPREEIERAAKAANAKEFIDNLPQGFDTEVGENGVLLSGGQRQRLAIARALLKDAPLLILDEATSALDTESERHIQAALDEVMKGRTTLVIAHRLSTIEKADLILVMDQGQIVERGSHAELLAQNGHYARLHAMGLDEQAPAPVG
Method: as §1

[8] = molecular target: Enterobacter cloacae MsbA (EnMsbA); experiment: as above; assay type: biochemical; details: FIGS. 13A, 13C
Method: as §1

[9] = molecular target: Klebsiella pneumoniae MsbA (KpMsbA); experiment: as above; assay type: biochemical; details: FIGS. 13A, 13C
Method: as §1

In the case of CC(C)C[C@@H]1NC(=O)[C@H](Cc2c[nH]c3ccccc23)NC(=O)[C@H](Cc2c[nH]c3ccccc23)NC(=O)[C@H](Cc2ccccc2)NC(=O)CSC[C@@H](C(=O)NCC(N)=O)NC(=O)[C@H](C(C)C)NC(=O)[C@H](Cc2ccccc2)N(C)C(=O)[C@H](Cc2c[nH]c3ccccc23)NC(=O)[C@H](Cc2c[nH]c3ccccc23)NC(=O)[C@H](CO)NC(=O)[C@H](C(C)C)NC(=O)[C@H](CC(=O)O)NC(=O)[C@H](CC(=O)O)NC(=O)[C@H](Cc2c[nH]c3ccccc23)NC1=O [Compound G1118] ({CH2CO}-FWWLWDDVSWW[NMeF]VCG-NH2; thioether N-14), the “activity on WT E. coli with an intact outer membrane” value [1] is reported as “no activity was observed”, the “LPS transport activity of E. coli MsbA” value [2] is reported as “inhibit LPS transport activity” and the “inner membrane elaboration / membrane stacking phenotype” value ([2]; electron micrographs, imp cells treated with inhibitor) is reported as “gave rise to the distinctive inner membrane elaboration phenotype; also recorded: mirrored the distinctive inner membrane elaboration phenotype”. For the same compound, the “minimum inhibitory concentration (MIC)” value [3] was about 210 µg/mL (≈ 101 µM), the IC50 [4] was over 5 µM and the “lower potency on purified MsbA-chim5 versus EcMsbA” value [5] was over 30 fold. The IC50 ([6]; IC50 for binding to MsbA in an imp E. coli strain, worded as binding to MsbA in imp E. coli strain (outer membrane permeable), FIG. 3F) was 5 nM, the IC50 ([6]; half-maximum inhibitory concentration (IC50), ATPase activity of EcMsbA, purified WT EcMsbA, FIG. 3C) was about 110 nM and the IC50 [7] was 3.1 µM. The IC50 [8] was about 240 nM and the IC50 [9] was about 120 nM.
